From PubChem BioAssay (NCI)
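Dose response: 5 concentrations. Exposure: 48 h. Format: 96-well plates. Endpoint: linear interpolation; highest concentration if not reached. TGI marks complete inhibition of growth.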 Where a SMILES comes first, the peptide text is derived from it. The star is where a group is joined. Boc = CC(C)(C)OC(=O)*; OBn = c1ccc(CO*)cc1

Columns and labels:
Assay in all cases: NCI tumour cell line growth inhibition, 48 h
[1] = system: A549 NSCLC
[2] = system: COLO 205 colon
[3] = system: HCT-116 colon
[4] = system: HOP-92 NSCLC
[5] = system: HS 578T breast
[6] = system: MDA-N
[7] = system: NCI-H226 lung
[8] = system: NCI-H522 lung
[9] = system: SK-MEL-2 melanoma
[10] = system: SK-MEL-28 melanoma
[11] = system: SW-620 colon
[12] = system: TK-10 renal
[13] = system: UO-31 renal

Compound: CC(=O)OC1[C@@H](OC(C)=O)CN(OCc2ccccc2)C[C@H]1OC(C)=O (stereo partly specified)
- TGI [1]: > 100 µM
- TGI [2]: > 100 µM
- TGI [3]: > 100 µM
- TGI [4]: > 100 µM
- TGI [5]: > 100 µM
- TGI [6]: > 100 µM
- TGI [7]: > 100 µM
- TGI [8]: > 100 µM
- TGI [9]: > 100 µM
- TGI [10]: > 100 µM
- TGI [11]: > 100 µM
- TGI [12]: > 100 µM
- TGI [13]: > 100 µM

Compound: CC(=O)OC1[C@H](n2ccnc2)C[C@H]2[C@@H]3CC=C4CC(N5CCCC5)CC[C@]4(C)[C@H]3CC[C@]12C (stereo partly specified)
- TGI [1]: > 100 µM
- TGI [2]: > 100 µM
- TGI [3]: > 100 µM
- TGI [4]: > 100 µM
- TGI [5]: > 100 µM
- TGI [6]: > 100 µM
- TGI [7]: > 100 µM
- TGI [8]: > 100 µM
- TGI [9]: 54.7 µM
- TGI [10]: 60.4 µM
- TGI [11]: > 100 µM
- TGI [12]: > 100 µM
- TGI [13]: > 100 µM

Compound: CC(C)CC(NC(=O)C(Cc1ccccc1)NC(=O)C(Cc1ccccc1)NC(=O)OC(C)(C)C)C(=O)OCc1ccccc1 (stereo not drawn) (Boc-Phe-Phe-Leu-OBn; configuration not given here)
- TGI [1]: > 100 µM
- TGI [2]: > 100 µM
- TGI [3]: > 100 µM
- TGI [4]: > 100 µM
- TGI [5]: > 100 µM
- TGI [6]: > 100 µM
- TGI [7]: > 100 µM
- TGI [8]: > 100 µM
- TGI [9]: > 100 µM
- TGI [10]: > 100 µM
- TGI [11]: > 100 µM
- TGI [12]: > 100 µM
- TGI [13]: > 100 µM

Compound: Cc1cccc(C(=O)O)c1CC1NCCC2c3ccccc3NC12 (stereo unspecified)
- TGI [1]: > 100 µM
- TGI [2]: > 100 µM
- TGI [3]: > 100 µM
- TGI [4]: > 100 µM
- TGI [5]: > 100 µM
- TGI [6]: > 100 µM
- TGI [7]: > 100 µM
- TGI [8]: > 100 µM
- TGI [9]: > 100 µM
- TGI [10]: > 100 µM
- TGI [11]: > 100 µM
- TGI [12]: > 100 µM
- TGI [13]: > 100 µM

Compound: COCn1c(C)c(C)c2c(=O)oc(C)nc21
- TGI [1]: > 100 µM
- TGI [2]: > 100 µM
- TGI [3]: > 100 µM
- TGI [4]: > 100 µM
- TGI [5]: > 100 µM
- TGI [6]: > 100 µM
- TGI [7]: > 100 µM
- TGI [8]: > 100 µM
- TGI [9]: > 100 µM
- TGI [10]: > 100 µM
- TGI [11]: > 100 µM
- TGI [12]: > 100 µM
- TGI [13]: > 100 µM

Compound: NC(N)=NS(=O)(=O)c1ccc(NC(=O)c2ccc3nc4ccccc4c(N)c3c2)cc1
- TGI [1]: > 100 µM
- TGI [2]: > 100 µM
- TGI [3]: > 100 µM
- TGI [4]: > 100 µM
- TGI [5]: > 100 µM
- TGI [6]: > 100 µM
- TGI [7]: > 100 µM
- TGI [8]: > 100 µM
- TGI [9]: > 100 µM
- TGI [10]: > 100 µM
- TGI [11]: > 100 µM
- TGI [12]: > 100 µM
- TGI [13]: > 100 µM

Compound: CCOC(=O)N1N(c2ccccc2)C(=O)C1(c1ccccc1)c1ccccc1
- TGI [1]: > 100 µM
- TGI [2]: > 100 µM
- TGI [3]: > 100 µM
- TGI [4]: > 100 µM
- TGI [5]: > 100 µM
- TGI [6]: > 100 µM
- TGI [7]: > 100 µM
- TGI [8]: > 100 µM
- TGI [9]: 70.5 µM
- TGI [10]: > 100 µM
- TGI [11]: > 100 µM
- TGI [12]: > 100 µM
- TGI [13]: > 100 µM

Compound: C=CCn1c(-c2ccc(Cl)cc2Cl)csc1=Nc1c(C)n(C)n(-c2ccccc2)c1=O
- TGI [1]: 23.1 µM
- TGI [2]: 25.6 µM
- TGI [3]: 20.4 µM
- TGI [4]: 41.1 µM
- TGI [5]: 44.7 µM
- TGI [6]: 22.4 µM
- TGI [7]: 33 µM
- TGI [8]: 29.6 µM
- TGI [9]: 29.2 µM
- TGI [10]: 26.7 µM
- TGI [11]: 32.8 µM
- TGI [12]: 25.7 µM
- TGI [13]: 24.3 µM

Compound: CN(C)/C=C/c1c2c(nc3ccccc13)C(=O)c1ccccc1C2=O
- TGI [1]: 8.72 µM
- TGI [2]: 5.5 µM
- TGI [3]: 3.26 µM
- TGI [4]: 30 µM
- TGI [5]: 4.21 µM
- TGI [6]: 0.957 µM
- TGI [7]: 5.21 µM
- TGI [8]: 4.61 µM
- TGI [9]: 6.27 µM
- TGI [10]: 0.55 µM
- TGI [11]: 5.04 µM
- TGI [12]: 6 µM
- TGI [13]: 7.2 µM

Compound: CC(C)(O)CCc1ccc(O)c2c(=O)c3c(O)c4c(cc3oc12)O[C@H]1OC=C[C@@]41O
- TGI [1]: > 100 µM
- TGI [2]: 0.378 µM
- TGI [3]: 4.52 µM
- TGI [4]: 14.8 µM
- TGI [5]: 41.6 µM
- TGI [6]: 0.0142 µM
- TGI [7]: 0.162 µM
- TGI [8]: 18.3 µM
- TGI [9]: < 0.01 µM
- TGI [10]: 1.38 µM
- TGI [11]: 27.8 µM
- TGI [12]: > 100 µM
- TGI [13]: 0.414 µM

Compound: O[C@H]1[C@H](O)[C@@H](Cn2nnc(-c3ccccc3)c2-c2ccccc2)OCO[C@@H]1Cn1nnc(-c2ccccc2)c1-c1ccccc1
- TGI [1]: 13.5 µM
- TGI [2]: 12.2 µM
- TGI [3]: 9.63 µM
- TGI [4]: 8.23 µM
- TGI [5]: 33.2 µM
- TGI [6]: 9.97 µM
- TGI [7]: > 45.4 µM
- TGI [8]: 21.5 µM
- TGI [9]: 9.41 µM
- TGI [10]: > 67.1 µM
- TGI [11]: 46.6 µM
- TGI [12]: 19 µM
- TGI [13]: 17 µM

Compound: CCN(CC)CCNC(=O)c1nn(-c2ccc(Cl)cc2)c2c1CCc1cc(OC)ccc1-2
- TGI [1]: 21.3 µM
- TGI [2]: 6.42 µM
- TGI [3]: 13.3 µM
- TGI [4]: 15.8 µM
- TGI [5]: 13.8 µM
- TGI [6]: 10.2 µM
- TGI [7]: 24.2 µM
- TGI [8]: 11 µM
- TGI [9]: 3.18 µM
- TGI [10]: 4.23 µM
- TGI [11]: 7.59 µM
- TGI [12]: 23.8 µM
- TGI [13]: 9.24 µM
